Results taken from patent US12662476B2, “Herbicidal thiazole compounds” (SYNGENTA CROP PROTECTION AG, priority 2019, dated 2026).

Tests used:
Assay type in all cases: in vivo
[1] = system: Amaranthus retoflexus (AMARE); assay: Pre-emergence herbicidal glasshouse test; details: sprayed after one day cultivation, 250 g/ha, evaluated after 13 days, five-point scale
Protocol: (§1) Seeds of a variety of test species are sown in standard soil in pots Amaranthus retoflexus (AMARE), Echinochloa crus-galli (ECHCG), Setaria faberi (SETFA)). After cultivation for one day (pre-emergence) or after 8 days cultivation (post-emergence) under controlled conditions in a glasshouse (at 24/16° C., day/night; 14 hours light; 65% humidity), the plants are sprayed with an aqueous spray solution derived from the formulation of the technical active ingredient in acetone/water (50:50) solution containing 0.5% Tween™ 20 (polyoxyethylene sorbitan monolaurate, CAS RN 9005-64-5). Compounds are applied at 250 g/ha unless otherwise stated. The test plants are then grown in a glasshouse under controlled conditions in a glasshouse (at 24/16° C., day/night; 14 hours light; 65% humidity) and watered twice daily. After 13 days for pre- and post-emergence, the test is evaluated for the percentage damage caused to the plant. The biological activities are shown in the following table on a five-point scale (5=81-100%; 4=61-80%; 3=41-60%; 2=21-40%; 1=0-20%).

Setaria faberi (SETFA) [2] = assay: Pre-emergence herbicidal glasshouse test; details: sprayed after one day cultivation, 250 g/ha, evaluated after 13 days, five-point scale
Protocol: as §1

[3] = system: Echinochloa crus-galli (ECHCG); assay: Pre-emergence herbicidal glasshouse test; details: sprayed after one day cultivation, 250 g/ha, evaluated after 13 days, five-point scale
Protocol: as §1

[4] = system: Amaranthus retoflexus (AMARE); assay: Post-emergence herbicidal glasshouse test; details: sprayed after 8 days cultivation, 250 g/ha, evaluated after 13 days, five-point scale
Protocol: as §1

Setaria faberi (SETFA) [5] = assay: Post-emergence herbicidal glasshouse test; details: sprayed after 8 days cultivation, 250 g/ha, evaluated after 13 days, five-point scale
Protocol: as §1

[6] = system: Echinochloa crus-galli (ECHCG); assay: Post-emergence herbicidal glasshouse test; details: sprayed after 8 days cultivation, 250 g/ha, evaluated after 13 days, five-point scale
Protocol: as §1

Structure (SMILES) | percentage damage caused to the plant, AMARE [1] | percentage damage caused to the plant, SETFA (Setaria faberi (SETFA) [2]) | percentage damage caused to the plant, ECHCG [3] | percentage damage caused to the plant, AMARE [4] | percentage damage caused to the plant, SETFA (Setaria faberi (SETFA) [5]) | percentage damage caused to the plant, ECHCG [6]
FC(F)c1cc(-c2c(Br)cccc2Oc2nc(Cl)c(Cl)s2)on1 [Compound 1.028] | 2 (2=21-40%) | 4 (4=61-80%) | 4 (4=61-80%) | 4 (4=61-80%) | 4 (4=61-80%) | 4 (4=61-80%)
Fc1cccc(Oc2nc(Cl)c(Cl)s2)c1-c1cc(C(F)F)no1 [Compound 1.029] | 5 (5=81-100%) | 2 (2=21-40%) | 1 (1=0-20%) | 5 (5=81-100%) | 2 (2=21-40%) | 1 (1=0-20%)
FC(F)c1cc(-c2c(Br)cccc2Oc2nc(C(F)F)c(Cl)s2)on1 [Compound 1.030] | 1 (1=0-20%) | 1 (1=0-20%) | 1 (1=0-20%) | 1 (1=0-20%) | 1 (1=0-20%) | 1 (1=0-20%)
Fc1cccc(Sc2ncc(Cl)s2)c1-c1cc(C(F)F)no1 [Compound 1.031, 5-[2-(5-chlorothiazol-2-yl)sulfanyl-6-fluoro-phenyl]-3-(difluoromethyl)isoxazole] | 3 (3=41-60%) | 2 (2=21-40%) | 2 (2=21-40%) | 4 (4=61-80%) | 3 (3=41-60%) | 2 (2=21-40%)
FC(F)c1cc(-c2c(Cl)cccc2Oc2nc(Cl)c(Cl)s2)on1 [Compound 1.032] | 5 (5=81-100%) | 1 (1=0-20%) | 1 (1=0-20%) | 5 (5=81-100%) | 4 (4=61-80%) | 2 (2=21-40%)
Fc1cccc(Oc2nc(C(F)(F)F)cs2)c1-c1cc(C(F)F)no1 [Compound 1.033] | 5 (5=81-100%) | 5 (5=81-100%) | 4 (4=61-80%) | 4 (4=61-80%) | 4 (4=61-80%) | 4 (4=61-80%)
FC(F)c1cc(-c2c(Br)cccc2Oc2nc(C(F)(F)F)cs2)on1 [Compound 1.034] | 4 (4=61-80%) | 5 (5=81-100%) | 3 (3=41-60%) | 4 (4=61-80%) | 4 (4=61-80%) | 3 (3=41-60%)
Fc1cccc(Oc2nc(C(F)F)c(Cl)s2)c1-c1cc(C(F)F)no1 [Compound 1.035] | 1 (1=0-20%) | 1 (1=0-20%) | 1 (1=0-20%) | 2 (2=21-40%) | 1 (1=0-20%) | 1 (1=0-20%)
